Results from patent publication US11910798B2, “Compositions including a vacancy-engineered (VE)-ZnO nanocomposite, methods of making the compositions and methods of using the compositions” (priority 2015, dated 2024).

System: E. coli
Assay: MIC against E. coli
Format: cell-based
Conditions: Escherichia coli, read-out: MIC (μg/mL) in metallic Zn or Cu
Description: Table 1 illustrates the minimum inhibitory concentration against E. coli for various agents.

SMILES: O=C([O-])c1ccccc1O.[Na+] [Capping Agent, sodium salicylate]
- MIC: 3000 µg/mL
